The record followed here is US20250033966A1, “MANUFACTURING METHOD FOR OBTAINING NOVEL CHLORINE OXIDE COMPOSITION FROM DEGRADED HYPOCHLORITE” (HONBUSANKEI CO., LTD., priority 2018, published 2025).

The structures appear in SMILES notation.

The test system of series [1] is E. coli group. In words: Bactericidal effect on green onions, E. coli group count. Format: cell-based. As to conditions: green onion, immersion 30 minutes.
Series [2] concerns overall viable bacteria count. Description: Bactericidal effect on green onions, overall viable bacteria count. As to conditions: green onion, immersion 30 minutes. Format: cell-based.
Series [3] can be described thus: ORP (oxidation-reduction potential) of mixtures versus sodium hypochlorite solution of the same concentration. Format: physicochemical. As to conditions: for ORP: Only solution.

Regarding `OCl` [sodium hypochlorite], the “E. coli group count” value in series [1] (200 ppm, D + 3) came to 5.66 log CFU; in series [1] (1000 ppm, D + 2) it was 2.64 log CFU; in series [1] (1000 ppm, D + 3), 4.73 log CFU. Also, the “Overall viable bacteria count” value in series [2] (200 ppm, D + 0) came out at 5.00 log CFU; in series [2] (200 ppm, D + 1), 5.72 log CFU; in series [2] (1000 ppm, D + 0), 3.57 log CFU; in series [2] (1000 ppm, D + 1), 5.61 log CFU. For the same compound, the ORP in series [3] (200 ppm) came out at 554 mV; in series [3] (1000 ppm) it was 560 mV; in series [3] (Undiluted solution (6%)) it was 560 mV. In addition, the “ORP (oxidation-reduction potential) / oxidizing power upon dilution” value in series [3] (diluted) is “no change”.
